A short description of test [1]: DPPH free radical scavenging assay. Format: biochemical. The method, then:
The 1,1-diphenyl-2-picrylhydrazyl free radicals of the compounds were performed by using the reported method. Different concentrations of the compounds were mixed with DPPH methanolic solution of 0.004%. After half an hour, the absorption was determined with a double-beam UV-visible spectrophotometer at 517 nm. The same standard (ascorbic acid) was used as in the ABTS assay. The experiments were repeated three times. The percent inhibitions and IC50 values of the compounds were calculated with the standard formula.

Test [2] is described as follows: ABTS free radical scavenging assay. Format: biochemical. Particulars: for ABTS IC50: ABTS radical scavenging, absorbance at 734 nm. The method, then: The ABTS free radical scavenging antioxidant activity of the compounds was performed by using the previously reported methods. In this activity, the compounds scavenge ABTS^+ cations, and thus, a reduction in absorption is observed at 734 nm using a UV-visible spectrophotometer. Solutions of 7 mM ABTS and 2.45 mM of […] were prepared and were mixed. The mixture was stored at dark for about 16 h to get ABTS cations which appeared dark in color. The solution of ABTS cation was diluted with phosphate buffer (0.01 M having pH of 7.4); the absorbance value (0.70) was adjusted at 734 nm. To confirm the ABTS radicals' scavenging capacity, 300 μL solution of compound was mixed with 3.0 mL of ABTS. After one minute, the reduction in absorption was noted and was monitored for six minutes. The ascorbic acid was used as positive control in this activity. The experiments were repeated three times. The percent inhibitions and its IC50 values were measured as per the standard method.

The target in a further test is AChE (Homo sapiens, UniProt P22303). Kind of test: biochemical. The protocol:
(§1) The two enzymes break down their respective thiocholine iodide to produce the ion 5-thio-2-nitrobenzoate. […] The enzyme dilutions were prepared in phosphate buffer having pH of 8. Parallelly, the acetyl and butyrylthiocholine iodide solutions (0.05 mM) and DTNB were also prepared in H2O (distilled water of our laboratory) and were stored at 8°C for 15 min. […] The experiments were performed three times. The percent inhibitions and their subsequent IC50 values were calculated as per the standard formula [43].

The next test concerns the target BChE (Homo sapiens, UniProt P06276). Put plainly: Anticholinesterase assay (BChE). Format: biochemical. The method, then:
as §1

The target in another test is T1, COX-2 (Homo sapiens, UniProt P35354).
T1 sequence (P35354 18-604): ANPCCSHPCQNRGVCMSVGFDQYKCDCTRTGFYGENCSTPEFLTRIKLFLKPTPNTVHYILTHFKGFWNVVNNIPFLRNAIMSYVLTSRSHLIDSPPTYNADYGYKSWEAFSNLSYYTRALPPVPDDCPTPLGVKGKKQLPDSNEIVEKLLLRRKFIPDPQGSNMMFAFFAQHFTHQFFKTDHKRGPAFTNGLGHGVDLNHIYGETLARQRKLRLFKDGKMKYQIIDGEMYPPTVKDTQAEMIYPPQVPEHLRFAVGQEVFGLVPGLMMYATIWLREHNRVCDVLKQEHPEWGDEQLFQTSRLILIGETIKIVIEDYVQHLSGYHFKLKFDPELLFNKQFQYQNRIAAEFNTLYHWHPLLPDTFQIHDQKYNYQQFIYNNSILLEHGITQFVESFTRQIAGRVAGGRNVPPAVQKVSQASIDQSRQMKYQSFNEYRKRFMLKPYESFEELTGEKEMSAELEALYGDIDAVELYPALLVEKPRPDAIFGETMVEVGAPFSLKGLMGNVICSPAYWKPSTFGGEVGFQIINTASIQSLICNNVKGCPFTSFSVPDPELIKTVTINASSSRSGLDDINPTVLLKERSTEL
Kind of test: Anticyclooxygenase assay (COX-2). Format: biochemical. The method, then: (§2) The COX-1 enzyme 10 μL and COX-2 300 units/mL were activated on ice for 5 min. The activation solution was accompanied by a cofactor of 50 μL containing glutathione, hematin, 1.0 mM, and TMPD in Tris-HCl buffer with pH of 8. […] The reaction was initiated when arachidonic acid 20 μL was added. The reaction was incubated for 5 min, and absorbance was measured at 570 nm as per the reported procedure. The experiments were repeated three times.

The target in another test is COX-1 (Homo sapiens, UniProt P23219). Put plainly: Anticyclooxygenase assay (COX-1). Format: biochemical. The method, then:
as §2

Another test deals with 5-LOX. Kind of test: 5-Lipoxygenase assay (5-LOX). Format: biochemical. The method, then: The lipoxygenase enzyme 10,000 unit/μL was used in the assay. The substrate used in this assay was linoleic acid. […] The combined mixture was incubated at 25°C for 5 min. Afterwards, linoleic acid was properly mixed with it and was kept for 5 min. […] The experiments were performed three times. The percent 5-LOX inhibitions and the IC50 values were calculated as per the standard formula [44].

Test [3] deals with T2, protein tyrosine phosphatase 1B (Homo sapiens, UniProt P18031).
T2 sequence (P18031 1-435): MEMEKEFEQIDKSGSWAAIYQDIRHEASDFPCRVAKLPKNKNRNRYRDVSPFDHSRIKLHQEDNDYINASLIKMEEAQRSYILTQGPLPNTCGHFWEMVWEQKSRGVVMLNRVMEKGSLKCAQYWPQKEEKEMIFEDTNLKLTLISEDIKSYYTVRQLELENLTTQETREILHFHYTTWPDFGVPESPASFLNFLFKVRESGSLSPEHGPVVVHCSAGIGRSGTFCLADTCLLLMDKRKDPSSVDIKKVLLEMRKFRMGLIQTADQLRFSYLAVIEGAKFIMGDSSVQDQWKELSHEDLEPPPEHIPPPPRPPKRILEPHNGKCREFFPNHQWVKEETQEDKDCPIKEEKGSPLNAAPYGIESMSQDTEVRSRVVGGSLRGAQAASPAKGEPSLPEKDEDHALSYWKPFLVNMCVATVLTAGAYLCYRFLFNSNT
Put plainly: Protein tyrosine phosphatase 1B assay. Format: biochemical. The protocol: In the PTP1B assay, 4-nitrophenylphosphate was used as substrate. The solution of dimethyl glutarate […] in buffer of pH 7 was prepared to be used in the assay. […] The solution was incubated at 37°C for 15 min. […] The experiments were performed three times. The percent inhibitions and their corresponding IC50 values were calculated as per the standard formula [46].

Where [4] appears, read: DPPH radical scavenging, absorbance at 517 nm.
Where [5] appears, read: Tables 2 and 3 print no unit, text μg/mL, abstract μM.
The mark [6] stands for this setting: Table 2 prints no unit, text b63 μg/mL, abstract μM.

Values joined by “and” are separate entries in the source; they are usually repeats but may differ in a detail not shown here. Equal entries are not always repeated. Where two headings read alike, the source gives them in different places.

Chain of AChE (P22303 32-614): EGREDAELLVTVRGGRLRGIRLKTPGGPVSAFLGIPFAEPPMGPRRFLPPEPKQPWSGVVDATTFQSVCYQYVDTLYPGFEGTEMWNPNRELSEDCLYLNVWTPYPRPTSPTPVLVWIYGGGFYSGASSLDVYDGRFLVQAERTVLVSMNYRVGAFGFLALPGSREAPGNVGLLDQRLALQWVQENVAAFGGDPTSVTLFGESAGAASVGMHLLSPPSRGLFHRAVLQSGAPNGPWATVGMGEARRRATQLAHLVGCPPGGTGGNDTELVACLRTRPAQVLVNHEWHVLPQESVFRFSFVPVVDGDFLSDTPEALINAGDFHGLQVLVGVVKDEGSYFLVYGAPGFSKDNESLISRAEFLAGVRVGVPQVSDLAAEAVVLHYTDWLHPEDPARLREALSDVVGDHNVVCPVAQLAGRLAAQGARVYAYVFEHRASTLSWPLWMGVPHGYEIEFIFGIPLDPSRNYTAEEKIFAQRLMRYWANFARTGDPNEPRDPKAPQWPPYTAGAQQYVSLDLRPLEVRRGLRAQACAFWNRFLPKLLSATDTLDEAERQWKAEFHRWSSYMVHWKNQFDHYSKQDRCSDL
Chain of COX-1 (P23219 24-599): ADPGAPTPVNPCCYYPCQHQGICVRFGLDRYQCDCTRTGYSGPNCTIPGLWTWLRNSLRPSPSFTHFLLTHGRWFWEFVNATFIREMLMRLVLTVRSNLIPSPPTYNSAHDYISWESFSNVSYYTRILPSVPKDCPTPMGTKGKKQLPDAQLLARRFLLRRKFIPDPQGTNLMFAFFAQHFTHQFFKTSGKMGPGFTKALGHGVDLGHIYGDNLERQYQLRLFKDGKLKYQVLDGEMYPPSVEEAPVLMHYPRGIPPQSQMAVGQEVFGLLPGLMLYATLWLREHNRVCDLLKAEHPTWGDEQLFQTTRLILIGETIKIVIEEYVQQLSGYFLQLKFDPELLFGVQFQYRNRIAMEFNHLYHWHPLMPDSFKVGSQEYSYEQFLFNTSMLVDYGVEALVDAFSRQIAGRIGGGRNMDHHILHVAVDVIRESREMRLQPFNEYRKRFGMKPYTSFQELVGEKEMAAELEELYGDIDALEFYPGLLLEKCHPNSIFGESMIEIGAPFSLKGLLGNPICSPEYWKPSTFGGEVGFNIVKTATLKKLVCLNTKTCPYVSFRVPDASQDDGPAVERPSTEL
Chain of BChE (P06276 29-602, species assumed): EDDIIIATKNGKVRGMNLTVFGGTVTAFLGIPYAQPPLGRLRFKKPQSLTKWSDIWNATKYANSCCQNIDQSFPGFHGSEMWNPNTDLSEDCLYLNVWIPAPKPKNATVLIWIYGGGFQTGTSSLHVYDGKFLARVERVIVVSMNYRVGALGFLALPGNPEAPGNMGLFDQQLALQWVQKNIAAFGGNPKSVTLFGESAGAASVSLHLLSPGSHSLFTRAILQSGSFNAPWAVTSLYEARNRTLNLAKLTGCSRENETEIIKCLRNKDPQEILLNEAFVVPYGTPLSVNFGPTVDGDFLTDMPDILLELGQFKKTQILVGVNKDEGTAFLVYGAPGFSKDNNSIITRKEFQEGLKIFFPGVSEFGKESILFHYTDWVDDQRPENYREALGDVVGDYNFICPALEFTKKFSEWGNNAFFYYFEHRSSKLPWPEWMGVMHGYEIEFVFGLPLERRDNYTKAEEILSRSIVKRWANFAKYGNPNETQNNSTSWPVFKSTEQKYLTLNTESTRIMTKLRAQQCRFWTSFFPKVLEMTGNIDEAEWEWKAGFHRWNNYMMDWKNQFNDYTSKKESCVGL

For the compound `O=C1O[C@H]([C@@H](O)CO)C(O)=C1O` [Ascorbic acid, reference compound], the “DPPH IC50” value is 0.840 µg/mL in test [1] (setting [4]); 0.840 ± 0.14 and 0.840 ± 0.04 in test [1] (setting [5]). Also, in test [2], the “ABTS IC50” value is 0.211 µg/mL.
On to `OCc1ccco1` [Compound 1, Furan-2-ylmethanol], for which the “DPPH IC50” value in test [1] (setting [4]) turned out to be 8.19 µg/mL. Also, the “ABTS IC50” value in test [2] was 7.43 µg/mL.
Consider `CC1=C(O)C(=O)C(C)(O)O1` (centres unmarked) [Compound 2, 2,4-Dihydroxy-2,5-dimethylfuran-3(2H)-one], for which, in test [1] (setting [4]), the “DPPH IC50” value is 1.61 µg/mL. Further, the “ABTS IC50” value in test [2] is 3.005 µg/mL. Besides, the ABTS percent inhibition in test [2] (at 31.25 μg/mL) is given as 66.44; in test [2] (at 62.5 μg/mL), 71.47; in test [2] (at 125 μg/mL) it was 77.39; in test [2] (at 250 μg/mL), 83.34; in test [2] (at 500 μg/mL), 88.36.
`C=Cc1ccc(O)cc1` [Compound 3, 4-Vinylphenol]: the “DPPH IC50” value in test [1] (setting [4]) was 10.27 µg/mL. Further, in test [2], the “ABTS IC50” value stood at 12.60 µg/mL.
In the case of `COc1c(O)ccc(O)c1C` [Compound 4, 2-Methoxy-3-methylbenzene-1,4-diol], in test [1] (setting [4]), the “DPPH IC50” value is 3.19 µg/mL. Further, the “ABTS IC50” value in test [2] is 4.63 µg/mL.
For `COc1cc(C=O)ccc1O` [Compound 5, 4-Hydroxy-3-methoxybenzaldehyde], in that order: 2.12 µg/mL and 8.28 µg/mL.
Consider `COc1cc(/C=C2\CC(=O)N(c3ccc(O)cc3)C2=O)ccc1O` [Compound 5A, (E)-3-(4-Hydroxy-3-methoxybenzylidene)-1-(4-hydroxyphenyl)pyrrolidine-2,5-dione], for which the IC50 against AChE is 10.6 µM; at AChE (setting [6]), 32.6 µM; in test [1], 1050 nM; against BChE, 15.1 µM; against BChE (setting [6]), 46.4 µM; at COX-2 (COX-2 IC50, Table 2 prints no unit, text b63 μg/mL, abstract μM), 3.32 µM. Moreover, the IC50 at COX-2 (COX-2 IC50, as printed in abstract) is 1.08 µM; against COX-1 (COX-1 IC50, Table 2 prints no unit, text b63 μg/mL, abstract μM), 42.8 µM; against COX-1 (COX-1 IC50, as printed in abstract), 13.9 µM; against 5-LOX (as printed in abstract and b89), 710 nM. The “SI (selectivity index AChE/BChE)” value on AChE (ratio of BChE IC50 to AChE IC50) was 1.42. Besides, the “DPPH IC50” value in test [1] (setting [5]) was 1.05 ± 0.51. The “SI (COX-2 selectivity index)” value at COX-2 (ratio of COX-1 and COX-2 IC50) is reported as 12.9. Moreover, the “5-LOX IC50” value on 5-LOX (Table 2 prints no unit, text b63 μg/mL, abstract and b89 μM) amounted to 0.71 ± 0.10.
Consider `COc1cc(/C=C2\SC(=O)NC2=O)ccc1O` [Compound 5B, (Z)-5-(4-Hydroxy-3-methoxybenzylidene)thiazolidine-2,4-dione], for which the IC50 in test [1] is 1940 nM; in test [3] (read-out: protein tyrosine phosphatase 1B IC50), 53.3 µM; in test [3] (unit inferred, text b66 μg/mL, abstract μM, read-out: PTP1B IC50 (converted)) it was 212 µM. The “DPPH IC50” value in test [1] (setting [5]) is reported as 1.94 ± 1.20.
Regarding `COc1cc(CC(C)=O)ccc1O` [Compound 6, 1-(4-Hydroxy-3-methoxyphenyl)propan-2-one], the “DPPH IC50” value in test [1] (setting [4]) was 9.99 µg/mL. For the same compound, the “ABTS IC50” value in test [2] came to 9.55 µg/mL.

The values are drawn from PMC9020998 (Oxidative Medicine and Cellular Longevity, 2022).
